Results taken from patent publication US20250144250A1, “PH-SENSITIVE FLUOROPHORES” (The General Hospital Corporation, priority 2022, published 2025).

Test system: ID8 cells
Experiment: Inhibition assay of transporters to determine entry mechanism of PH08
Format: cell-based, murine
Conditions: 0.2 μM PH08
Method: FIG. 2 Cellular uptake of pH sensing NIR fluorophores via membrane transporters: In vitro tumor cell uptake of the pH sensing NIR probes under normoxic and hypoxic conditions. Murine cancer cell line ID8 cells were incubated at normoxic or hypoxic conditions (1% O2) for 24 h at 37° C. and then incubated for 30 min in the presence of 0.1 μM NIR probes. (a) Representative fluorescence images of cells are shown. The contrast was normalized across all images. Scale bar=100 μm. (b) Quantitative time-course measurements of the fluorescence intensity in cells. *P<0.05, **P<0.01 by two-way ANOVA followed by Tukey's multiple comparisons test (Normoxia vs. Hypoxia). Error bars show mean #s.d. […] Representative fluorescence images of cells are shown. […] (d) Quantitative measurements of the fluorescence intensity in cells. *P<0.05 by two-way ANOVA followed by Tukey's multiple comparisons test. […]
The organic anion transporting polypeptides (OATPs) is known to mediate the transmembrane uptake of small molecule drugs and include structurally related fluorophores such as the clinically approved indocyanine green (ICG) and tumor-targeting IR-780. […] Next, we determined the contribution of organic cation transporters (OCTs) and organic carnitine (zwitterion) transporters (OCTNs) on the uptake of PH08, which may play roles in the transcellular movement of small organic molecules across epithelial barriers. […]

CCN1/C(=C/C=C2\CCCC(/C=C/C3=[N+](CC)c4ccccc4C3(C)C)=C2N2CCNCC2)C(C)(C)c2ccccc21 [PH08]
cellular uptake after treatment with D22, inhibitor of OCTs and OCTNs: did not induce changes in cellular uptake
cellular uptake after treatment with bromsulphthalein (BSP), OATP inhibitor: significant reduction in cellular uptake
